From ChEMBL document CHEMBL1201862, “PubChem BioAssay data set” (2004)
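In this assay, cells in 96-well plates receive the compound at five concentrations for 48 hours. Endpoints are linearly interpolated between the surrounding concentrations. GI50: concentration for 50% inhibition of growth.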 The source made the active and inactive calls. Cut-off read from the data, not from the text of the source: active = GI50 up to about 1.1 µM and inactive = higher.

How the values were obtained:
Assay in all cases: inhibition of tumour cell growth, NCI panel, 48 h
786-0 = system: 786-0
A498 = system: A498
A549 = system: A549
ACHN = system: ACHN
BT-549 = system: BT-549
CCRF-CEM = system: CCRF-CEM
COLO 205 = system: COLO 205
DLD-1 = system: DLD-1
DMS-114 = system: DMS-114
DMS-273 = system: DMS-273
DU-145 = system: DU-145
EKVX = system: EKVX
HCC 2998 = system: HCC 2998
HCT-116 = system: HCT-116
HCT-15 = system: HCT-15
HL-60 = system: HL-60
HOP-18 = system: HOP-18
HOP-62 = system: HOP-62
HOP-92 = system: HOP-92
HT-29 = system: HT-29
Hs-578T = system: Hs-578T
IGROV-1 = system: IGROV-1
K562 = system: K562
KM-20L2 = system: KM-20L2
KM12 = system: KM12
LOX IMVI = system: LOX IMVI
LXFL 529 = system: LXFL 529
M14 = system: M14
M19-MEL = system: M19-MEL
MDA-MB-231 = system: MDA-MB-231
MDA-MB-435 = system: MDA-MB-435
MDA-N = system: MDA-N
MOLT-4 = system: MOLT-4
Malme-3M = system: Malme-3M
NCI-H226 = system: NCI-H226
NCI-H23 = system: NCI-H23
NCI-H460 = system: NCI-H460
NCI-H522 = system: NCI-H522
NCI/ADR-RES = system: NCI/ADR-RES
OVCAR-3 = system: OVCAR-3
OVCAR-4 = system: OVCAR-4
OVCAR-5 = system: OVCAR-5
OVCAR-8 = system: OVCAR-8
PC-3 = system: PC-3
RPMI-8226 = system: RPMI-8226
RXF 393 = system: RXF 393
SF-268 = system: SF-268
SF-295 = system: SF-295
SF-539 = system: SF-539
SK-MEL-28 = system: SK-MEL-28
SK-MEL-2 = system: SK-MEL-2
SK-MEL-5 = system: SK-MEL-5
SK-OV-3 = system: SK-OV-3
SN12C = system: SN12C
SNB-19 = system: SNB-19
SNB-75 = system: SNB-75
SNB-78 = system: SNB-78
SR = system: SR
SW-620 = system: SW-620
T47D = system: T47D
TK-10 = system: TK-10
U-251 = system: U-251
UACC-257 = system: UACC-257
UACC-62 = system: UACC-62
UO-31 = system: UO-31
XF498 = system: XF498

Nc1nc(N)c2c(Cl)c(CNc3ccc(Cl)c(Cl)c3)ccc2n1
GI50 (786-0): < 10 nM (active)
GI50 (A498): 68.2 nM (active)
GI50 (A549): < 10 nM (active)
GI50 (ACHN): < 10 nM (active)
GI50 (BT-549): 4490 nM (inactive)
GI50 (CCRF-CEM): < 10 nM (active)
GI50 (COLO 205): 239 nM (active)
GI50 (DLD-1): < 10 nM (active)
GI50 (DMS-114): < 10 nM (active)
GI50 (DMS-273): < 25.9 nM (active)
GI50 (DU-145): 150 nM (active)
GI50 (EKVX): 2870 nM (inactive)
GI50 (HCC 2998): 14.6 nM (active)
GI50 (HCT-116): < 10 nM (active)
GI50 (HCT-15): < 10 nM
GI50 (HL-60): < 10 nM (active)
GI50 (HOP-18): 716 nM (active)
GI50 (HOP-62): 17.1 nM (active)
GI50 (HOP-92): 445 nM (active)
GI50 (HT-29): < 10 nM (active)
GI50 (Hs-578T): 1600 nM (inactive)
GI50 (IGROV-1): < 10 nM (active)
GI50 (K562): < 10 nM (active)
GI50 (KM-20L2): 225 nM (active)
GI50 (KM12): 23.8 nM (active)
GI50 (LOX IMVI): < 10 nM (active)
GI50 (LXFL 529): < 27.8 nM (active)
GI50 (M14): < 10 nM (active)
GI50 (M19-MEL): 23.8 nM (active)
GI50 (MDA-MB-231): 1520 nM (inactive)
GI50 (MDA-MB-435): < 10 nM (active)
GI50 (MDA-N): < 10 nM (active)
GI50 (MOLT-4): < 53.6 nM (active)
GI50 (Malme-3M): 471 nM (active)
GI50 (NCI-H226): 12900 nM (inactive)
GI50 (NCI-H23): 10.2 nM (active)
GI50 (NCI-H460): < 10 nM (active)
GI50 (NCI-H522): 49.9 nM (active)
GI50 (NCI/ADR-RES): < 10 nM (active)
GI50 (OVCAR-3): 168 nM (active)
GI50 (OVCAR-4): 871 nM (active)
GI50 (OVCAR-5): < 10 nM (active)
GI50 (OVCAR-8): < 10 nM (active)
GI50 (PC-3): < 10 nM (active)
GI50 (RPMI-8226): 181 nM (active)
GI50 (RXF 393): 337 nM (active)
GI50 (SF-268): 11.6 nM (active)
GI50 (SF-295): < 10 nM (active)
GI50 (SF-539): 16 nM (active)
GI50 (SK-MEL-28): 780 nM (active)
GI50 (SK-MEL-2): 3110 nM (inactive)
GI50 (SK-MEL-5): < 10 nM (active)
GI50 (SK-OV-3): 574 nM (active)
GI50 (SN12C): < 104 nM (active)
GI50 (SNB-19): 486 nM (active)
GI50 (SNB-75): 2640 nM (inactive)
GI50 (SNB-78): 7190 nM (inactive)
GI50 (SR): < 37.1 nM (active)
GI50 (SW-620): < 10 nM (active)
GI50 (T47D): 6850 nM (inactive)
GI50 (TK-10): 256 nM (active)
GI50 (U-251): < 21.5 nM (active)
GI50 (UACC-257): 138 nM (active)
GI50 (UACC-62): < 10 nM (active)
GI50 (UO-31): 29.4 nM (active)
GI50 (XF498): 2070 nM (inactive)
